≈ marks a conversion by molar mass, not a printed value. Entries after “also recorded” stand apart in the source; their conditions may differ. Like-named read-outs stand apart in the source and are kept apart here. Marks after values point to notes of the source that are not given here.
Tests used:
[1] = tested on: Cryptococcus neoformans; parameters: method as in PMID 30975502; settings: fungus Cryptococcus neoformans; ref [15]; cited from earlier work
[2] = tested on: P. aeruginosa ATCC 27853; settings: cited from earlier work
[3] = tested on: rat skeletal myoblast cell line L6; parameters: method as in PMID 30975502; settings: ref [15], read-out: IC50 cytotoxicity; cited from earlier work
[4] = tested on: HEK293 (human embryonic kidney cells); settings: cited from earlier work
[5] = tested on: S. aureus ATCC 25923; settings: cited from earlier work
[6] = tested on: C. albicans ATCC 90028; parameters: method as in Cadelis et al. [16]; settings: ref Cadelis et al. [16]; cited from earlier work
[7] = tested on: MRSA ATCC 43300; experiment: Antimicrobial susceptibility (MIC), MRSA; format: cell-based; settings: Staphylococcus aureus; MRSA ATCC 43300; mean (n = 2); read-out: MIC MRSA
How it was run: (§1)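 MICs against E. coli ATCC 25922 and P. aeruginosa ATCC 27853 followed previously reported protocols. MRSA ATCC 43300 and C. albicans ATCC 90028 were tested by CO-ADD under its standard protocols.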

[8] = tested on: human red blood cells; experiment: Hemolytic assay; format: cell-based; settings: mean (n = 2)
Description: Hemolysis assays were conducted according to previously reported protocols.

[9] = tested on: E. coli ATCC 25922; parameters: method as in Cadelis et al. [16]; settings: ref Cadelis et al. [16]; cited from earlier work
[10] = tested on: P. aeruginosa ATCC 27853; parameters: method as in Cadelis et al. [16]; settings: ref Cadelis et al. [16]; cited from earlier work
[11] = tested on: S. aureus ATCC 25923; experiment: Antimicrobial susceptibility (MIC), S. aureus; format: cell-based, Staphylococcus aureus; settings: Staphylococcus aureus, ATCC25923; S. aureus ATCC 25923; mean (n = 3)
[12] = Cytotoxicity assay HEK293; format: cell-based, human; settings: human, HEK293 cells, mean (n = 2), read-out: Cyto. IC50 (concentration of compound at 50% cytotoxicity)
Description: (§2) Cytotoxicity assays were conducted according to previously reported protocols.

[13] = tested on: HEK293 (human embryonic kidney cells); experiment: Cytotoxicity assay HEK293; format: cell-based; settings: mean (n = 2)
Description: as §2

[14] = tested on: C. albicans ATCC 90028; experiment: Antifungal susceptibility (MIC), C. albicans; format: cell-based; settings: Candida albicans, ATCC90028, mean (n = 2)
How it was run: as §1

[15] = tested on: E. coli ATCC 25922; experiment: Antimicrobial susceptibility (MIC), E. coli; format: cell-based; settings: Escherichia coli, ATCC25922, mean (n = 3)
How it was run: as §1

[16] = tested on: P. aeruginosa ATCC 27853; experiment: Antimicrobial susceptibility (MIC), P. aeruginosa; format: cell-based; settings: Pseudomonas aeruginosa, ATCC27853, mean (n = 3), read-out: MIC P. a
How it was run: as §1

[17] = tested on: P. aeruginosa ATCC 27853; experiment: Antibiotic potentiation (MIC of antibiotics in the presence of synergizing compounds), P. aeruginosa; format: cell-based, Pseudomonas aeruginosa; settings: for Conc (µM) for Potentiation of doxycycline: concentration required to restore doxycycline activity at 2 µg/mL (4.5 µM) against P. aeruginosa ATCC 27853
[18] = tested on: E. coli ATCC 25922; experiment: Antibiotic potentiation, E. coli; format: cell-based, Escherichia coli; settings: mean (n = 3)
Description: (§3) Antibiotic enhancing activities were determined according to previously reported protocols.

[19] = tested on: Klebsiella pneumoniae ST258; experiment: Antibiotic potentiation, K. pneumoniae; format: cell-based; settings: mean (n = 3)
Description: as §3

[20] = tested on: A. baumannii AYE; experiment: Antibiotic potentiation, A. baumannii; format: cell-based, Acinetobacter baumannii; settings: mean (n = 3)
Description: as §3

MIC [7] [µM]	MIC [11] [µM]	MIC [14] [µM]	MIC [15] [µM]	MIC [16] [µM]	SMILES	Hem. HC10 (concentration of compound at 10% hemolytic activity) [8]	IC50 [12] [µM]	Cyto. IC50 (concentration of compound at 50% cytotoxicity) [13]	Conc (µM) for Potentiation of doxycycline [17] [µM]	also measured
–	–	–	–	–	O=C(NCCCNCCCCNCCCNC(=O)C(=O)c1c[nH]c2cc(Br)ccc12)C(=O)c1c[nH]c2cc(Br)ccc12 [Compound 1]	–	–	–	–	MIC [1]: 1.1 µM (≈ 0.773 µg/mL); antibiotic enhancement in combination with doxycycline ([2]; Pseudomonas aeruginosa, result in words, ref [15]): strong antibiotic enhancement effect; IC50 [3]: 7.7 µM; IC50 ([4]; human embryonic kidney cell line HEK293, ref [15], read-out: IC50 cytotoxicity): 5.1 µM; MIC ([5]; Staphylococcus aureus ATCC 25923, ref [15]): 6.25 µM (≈ 4.39 µg/mL)
20 (≈ 11.5 µg/mL)	–	–	–	–	Cc1cccc2c(C(=O)C(=O)NCCCNCCCCNCCCNC(=O)C(=O)c3c[nH]c4c(C)cccc34)c[nH]c12 [Compound 8]	>40 µM	–	–	–	MIC C. a [6]: >40.0 ^h µM; Conc (µM) for Potentiation of doxycycline ([2]; doxycycline at 2 µg/mL (4.5 µM), P. aeruginosa ATCC 27853, ref Cadelis et al. [16]): 6.25 ^b µM; MIC E. c [9]: >200 ^h µM; IC50 ([4]; HEK293, ref Cadelis et al. [16], read-out: Cyto. IC50 (concentration of compound at 50% cytotoxicity)): > 40 µM; MIC P. a [10]: >200 ^h µM; MIC S. a ([5]; S. aureus ATCC 25923, ref Cadelis et al. [16]): 25 ^h µM
> 37	29	> 37	> 200	> 200	COc1ccc2[nH]cc(C(=O)C(=O)NCCCNCCCCCCNCCCNC(=O)C(=O)c3c[nH]c4ccc(OC)cc34)c2c1.O=C(O)C(F)(F)F.O=C(O)C(F)(F)F [Compound 19a, N^1,N^6-Bis(3-(2-(5-methoxy-1H-indol-3-yl)-2-oxoacetamido)propyl)hexane-1,6-diaminium 2,2,2-trifluoroacetate]	–	> 37	non-toxic	7.3	Concentration (µM) for Potentiation of chloramphenicol ([17]; P. aeruginosa ATCC 27853, chloramphenicol 2 µg/mL, mean (n = 3)): 58 µM; Concentration (µM) for Potentiation of minocycline ([17]; P. aeruginosa ATCC 27853, minocycline 2 µg/mL, mean (n = 3)): 14.5 µM; Concentration (µM) for Potentiation, no antibiotic ([17]; P. aeruginosa ATCC 27853, no antibiotic, mean (n = 3)): >200 µM
19.1	7.5	> 38	240	240	O=C(NCCCNCCCCCCNCCCNC(=O)C(=O)c1c[nH]c2c(F)cccc12)C(=O)c1c[nH]c2c(F)cccc12.O=C(O)C(F)(F)F.O=C(O)C(F)(F)F [Compound 21a, N^1,N^6-Bis(3-(2-(7-fluoro-1H-indol-3-yl)-2-oxoacetamido)propyl)hexane-1,6-diaminium 2,2,2-trifluoroacetate]	>38 ^e µM	12	–	–	Concentration (µM) for Potentiation of chloramphenicol ([18]; chloramphenicol 2 µg/mL): >200 µM; Concentration (µM) for Potentiation of doxycycline ([18]; doxycycline 2 µg/mL): 1.56 µM; Concentration (µM) for Potentiation of erythromycin ([18]; erythromycin 2 µg/mL): 200 µM; Concentration (µM) for Potentiation of nalidixic acid ([18]; nalidixic acid 2 µg/mL): 200 µM; Concentration (µM) for Potentiation of chloramphenicol ([19]; chloramphenicol 2 µg/mL): >200 µM; Concentration (µM) for Potentiation of doxycycline ([19]; doxycycline 2 µg/mL): 200 µM; Concentration (µM) for Potentiation of erythromycin ([19]; erythromycin 2 µg/mL): >200 µM; Concentration (µM) for Potentiation of nalidixic acid ([19]; nalidixic acid 2 µg/mL): >200 µM; Concentration (µM) for Potentiation of erythromycin ([17]; P. aeruginosa ATCC 27853, erythromycin 2 µg/mL, mean (n = 3)): 100 µM; Concentration (µM) for Potentiation of chloramphenicol ([20]; chloramphenicol 2 µg/mL): 200 µM; Concentration (µM) for Potentiation of doxycycline ([20]; doxycycline 2 µg/mL): 12.5 µM; Concentration (µM) for Potentiation of erythromycin ([20]; erythromycin 2 µg/mL): 100 µM; Concentration (µM) for Potentiation of nalidixic acid ([20]; nalidixic acid 2 µg/mL): 200 µM; Concentration (µM) for Potentiation, no antibiotic ([20]; no antibiotic): 100 µM
≤ 0.3	14.8	> 38	120	> 240	Cc1cccc2c(C(=O)C(=O)NCCCNCCCCCCCNCCCNC(=O)C(=O)c3c[nH]c4c(C)cccc34)c[nH]c12.O=C(O)C(F)(F)F.O=C(O)C(F)(F)F [Compound 23b, N^1,N^7-Bis(3-(2-(7-methyl-1H-indol-3-yl)-2-oxoacetamido)propyl)heptane-1,7-diaminium 2,2,2-trifluoroacetate]	–	> 38	non-cytotoxic; also recorded: no detectable cytotoxicity	240	–
≤ 0.29	7.3	> 37	29	> 230	Cc1cccc2c(C(=O)C(=O)NCCCNCCCCCCCCNCCCNC(=O)C(=O)c3c[nH]c4c(C)cccc34)c[nH]c12.O=C(O)C(F)(F)F.O=C(O)C(F)(F)F [Compound 23c, N^1,N^8-Bis(3-(2-(7-methyl-1H-indol-3-yl)-2-oxoacetamido)propyl)octane-1,8-diaminium 2,2,2-trifluoroacetate]	–	> 37	non-cytotoxic; also recorded: no detectable cytotoxicity	230	–
